Data taken from PubChem BioAssay (NCI).
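These data come from cells grown in 96-well plates and exposed to compound for 48 hours at five concentrations. TGI: concentration producing complete growth inhibition.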

Legend:
Test in all cases: growth of human tumour cells (NCI), 48 h
CCRF-CEM leukemia = test system: CCRF-CEM leukemia
HCC-2998 colon = test system: HCC-2998 colon
RXF 393 renal = test system: RXF 393 renal
MOLT-4 leukemia = test system: MOLT-4 leukemia
SF-539 CNS = test system: SF-539 CNS
OVCAR-3 ovarian = test system: OVCAR-3 ovarian
OVCAR-4 ovarian = test system: OVCAR-4 ovarian
786-0 renal = test system: 786-0 renal
A549 NSCLC = test system: A549 NSCLC
KM20L2 colon = test system: KM20L2 colon
DLD-1 colon = test system: DLD-1 colon
M14 melanoma = test system: M14 melanoma
LOX IMVI melanoma = test system: LOX IMVI melanoma
MALME-3M melanoma = test system: MALME-3M melanoma
SNB-19 CNS = test system: SNB-19 CNS
M19-MEL melanoma = test system: M19-MEL melanoma
SNB-78 CNS = test system: SNB-78 CNS
SK-MEL-5 melanoma = test system: SK-MEL-5 melanoma
HCT-116 colon = test system: HCT-116 colon
NCI-H23 lung = test system: NCI-H23 lung
A498 renal = test system: A498 renal
CAKI-1 renal = test system: CAKI-1 renal
RPMI-8226 leukemia = test system: RPMI-8226 leukemia
TK-10 renal = test system: TK-10 renal
SF-295 CNS = test system: SF-295 CNS
ACHN renal = test system: ACHN renal
SN12C renal = test system: SN12C renal
UACC-257 melanoma = test system: UACC-257 melanoma
OVCAR-8 ovarian = test system: OVCAR-8 ovarian
RXF-631 renal = test system: RXF-631 renal
NCI-H460 lung = test system: NCI-H460 lung
HOP-92 NSCLC = test system: HOP-92 NSCLC
OVCAR-5 ovarian = test system: OVCAR-5 ovarian
NCI-H226 lung = test system: NCI-H226 lung
HCT-15 colon = test system: HCT-15 colon
K-562 leukemia = test system: K-562 leukemia
SF-268 CNS = test system: SF-268 CNS
IGROV1 ovarian = test system: IGROV1 ovarian
UACC-62 melanoma = test system: UACC-62 melanoma
SNB-75 CNS = test system: SNB-75 CNS
HL-60(TB) leukemia = test system: HL-60(TB) leukemia
SK-MEL-2 melanoma = test system: SK-MEL-2 melanoma
SK-MEL-28 melanoma = test system: SK-MEL-28 melanoma
DMS 273 small cell lung = test system: DMS 273 small cell lung
EKVX NSCLC = test system: EKVX NSCLC
UO-31 renal = test system: UO-31 renal
DMS 114 small cell lung = test system: DMS 114 small cell lung
SW-620 colon = test system: SW-620 colon
HT29 colon = test system: HT29 colon
SR leukemia = test system: SR leukemia
LXFL 529 NSCLC = test system: LXFL 529 NSCLC
HOP-18 NSCLC = test system: HOP-18 NSCLC
U251 CNS = test system: U251 CNS
NCI-H522 lung = test system: NCI-H522 lung
COLO 205 colon = test system: COLO 205 colon
KM12 colon = test system: KM12 colon
HOP-62 NSCLC = test system: HOP-62 NSCLC
SK-OV-3 ovarian = test system: SK-OV-3 ovarian

With `O=c1/c(=C/c2ccccc2O)sc2nc3ccccc3n12` the TGI (CCRF-CEM leukemia) was 45.6 µM, the TGI (HCC-2998 colon) was > 100 µM and the TGI (RXF 393 renal) was 57.9 µM. For the same molecule, the TGI (MOLT-4 leukemia) was 43.7 µM, the TGI (SF-539 CNS) was > 100 µM and the TGI (OVCAR-3 ovarian) was 98.7 µM. The TGI (OVCAR-4 ovarian) was > 100 µM, the TGI (786-0 renal) was > 100 µM and the TGI (A549 NSCLC) was > 100 µM. For the same molecule, the TGI (KM20L2 colon) was > 100 µM, the TGI (DLD-1 colon) was > 100 µM and the TGI (M14 melanoma) was > 100 µM. For the same molecule, the TGI (LOX IMVI melanoma) was 98.3 µM, the TGI (MALME-3M melanoma) was > 100 µM and the TGI (SNB-19 CNS) was > 100 µM. The TGI (M19-MEL melanoma) was > 100 µM, the TGI (SNB-78 CNS) was > 100 µM and the TGI (SK-MEL-5 melanoma) was > 100 µM. The TGI (HCT-116 colon) was > 100 µM, the TGI (NCI-H23 lung) was > 100 µM and the TGI (A498 renal) was > 100 µM. The TGI (CAKI-1 renal) was > 100 µM, the TGI (RPMI-8226 leukemia) was 64.9 µM and the TGI (TK-10 renal) was > 100 µM. For the same molecule, the TGI (SF-295 CNS) was > 100 µM, the TGI (ACHN renal) was > 100 µM and the TGI (SN12C renal) was > 100 µM. The TGI (UACC-257 melanoma) was > 100 µM, the TGI (OVCAR-8 ovarian) was > 100 µM and the TGI (RXF-631 renal) was > 100 µM. The TGI (NCI-H460 lung) was > 100 µM, the TGI (HOP-92 NSCLC) was > 100 µM and the TGI (OVCAR-5 ovarian) was > 100 µM. The TGI (NCI-H226 lung) was > 100 µM, the TGI (HCT-15 colon) was 49.8 µM and the TGI (K-562 leukemia) was 99.5 µM. It also gave a TGI (SF-268 CNS) of 56.7 µM, a TGI (IGROV1 ovarian) of 85.1 µM and a TGI (UACC-62 melanoma) of 80.6 µM. For the same molecule, the TGI (SNB-75 CNS) was > 100 µM, the TGI (HL-60(TB) leukemia) was 26.8 µM and the TGI (SK-MEL-2 melanoma) was > 100 µM. The TGI (SK-MEL-28 melanoma) was 71.6 µM, the TGI (DMS 273 small cell lung) was > 100 µM and the TGI (EKVX NSCLC) was 82 µM. For the same molecule, the TGI (UO-31 renal) was > 100 µM, the TGI (DMS 114 small cell lung) was 47.5 µM and the TGI (SW-620 colon) was > 100 µM. For the same molecule, the TGI (HT29 colon) was > 100 µM, the TGI (SR leukemia) was 61.3 µM and the TGI (LXFL 529 NSCLC) was > 100 µM.

`CC(C)COC(=O)N1N=NC2C3CC(=O)C(O3)C21` (configuration not stated) was tested, and the TGI (CCRF-CEM leukemia) was > 100 µM, the TGI (HCC-2998 colon) was > 100 µM and the TGI (RXF 393 renal) was > 100 µM. For the same molecule, the TGI (HOP-18 NSCLC) was > 100 µM, the TGI (MOLT-4 leukemia) was > 100 µM and the TGI (U251 CNS) was > 100 µM. For the same molecule, the TGI (SF-539 CNS) was > 100 µM, the TGI (OVCAR-3 ovarian) was > 100 µM and the TGI (OVCAR-4 ovarian) was > 100 µM. For the same molecule, the TGI (786-0 renal) was > 100 µM, the TGI (A549 NSCLC) was > 100 µM and the TGI (KM20L2 colon) was > 100 µM. The TGI (DLD-1 colon) was > 100 µM, the TGI (M14 melanoma) was > 100 µM and the TGI (LOX IMVI melanoma) was > 100 µM. The TGI (MALME-3M melanoma) was > 100 µM, the TGI (SNB-19 CNS) was > 100 µM and the TGI (M19-MEL melanoma) was > 100 µM. For the same molecule, the TGI (NCI-H522 lung) was > 100 µM, the TGI (SNB-78 CNS) was > 100 µM and the TGI (SK-MEL-5 melanoma) was > 100 µM. For the same molecule, the TGI (HCT-116 colon) was > 100 µM, the TGI (NCI-H23 lung) was > 100 µM and the TGI (A498 renal) was > 100 µM. The TGI (CAKI-1 renal) was > 100 µM, the TGI (RPMI-8226 leukemia) was > 100 µM and the TGI (TK-10 renal) was > 100 µM. The TGI (SF-295 CNS) was > 100 µM, the TGI (ACHN renal) was > 100 µM and the TGI (SN12C renal) was > 100 µM. The TGI (UACC-257 melanoma) was > 100 µM, the TGI (OVCAR-8 ovarian) was > 100 µM and the TGI (RXF-631 renal) was > 100 µM. For the same molecule, the TGI (NCI-H460 lung) was > 100 µM, the TGI (HOP-92 NSCLC) was > 100 µM and the TGI (OVCAR-5 ovarian) was > 100 µM. For the same molecule, the TGI (HCT-15 colon) was > 100 µM, the TGI (K-562 leukemia) was > 100 µM and the TGI (SF-268 CNS) was > 100 µM. For the same molecule, the TGI (IGROV1 ovarian) was > 100 µM, the TGI (UACC-62 melanoma) was > 100 µM and the TGI (COLO 205 colon) was > 100 µM. The TGI (SNB-75 CNS) was > 100 µM, the TGI (SK-MEL-2 melanoma) was > 100 µM and the TGI (SK-MEL-28 melanoma) was > 100 µM. For the same molecule, the TGI (DMS 273 small cell lung) was > 100 µM, the TGI (KM12 colon) was > 100 µM and the TGI (EKVX NSCLC) was > 100 µM. The TGI (UO-31 renal) was > 100 µM, the TGI (DMS 114 small cell lung) was > 100 µM and the TGI (HOP-62 NSCLC) was > 100 µM. The TGI (SW-620 colon) was > 100 µM, the TGI (HT29 colon) was > 100 µM and the TGI (SK-OV-3 ovarian) was > 100 µM. For the same molecule, the TGI (SR leukemia) was > 100 µM and the TGI (LXFL 529 NSCLC) was > 100 µM.
